A word on the IC50: it is the concentration that inhibits the measured activity by half.

Chain of human HPK1 (MAP4K1) (Q92918 17-274): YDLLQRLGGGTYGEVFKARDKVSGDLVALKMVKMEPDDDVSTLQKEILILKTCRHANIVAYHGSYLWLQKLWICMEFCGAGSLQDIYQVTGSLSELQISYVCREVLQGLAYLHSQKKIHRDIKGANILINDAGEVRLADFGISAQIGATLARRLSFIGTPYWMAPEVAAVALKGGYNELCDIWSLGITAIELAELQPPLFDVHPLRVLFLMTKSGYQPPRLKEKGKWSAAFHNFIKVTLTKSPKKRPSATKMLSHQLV

In this test the target is human HPK1 (MAP4K1) (Homo sapiens (Human), UniProt Q92918). The test can be described thus: HPK1 IC50 Assay (TR-FRET peptide phosphorylation). To be noted: recombinant HPK1 kinase domain 0.15 nM, 10 μM ATP, 1 μM STK S1 peptide; geometric mean of multiple experiments. It counts as biochemical. In a few lines:
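Pre-activated, dually phosphorylated baculovirus-expressed HPK1 kinase domain (0.15 nM) preincubated 15 min with compound, then reacted 3 h at 25° C with 10 μM ATP and 1 μM STK S1 peptide in BES pH 7.0 buffer. Phosphopeptide read by TR-FRET (665/620 nm); four-parameter fit, geometric-mean IC50.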
For orientation: In TR-FRET formats the signal depends on donor and acceptor labels being close together.
Consider `Cc1ccc(Nc2nc(-c3ccc4c(c3)N([C@H]3C[C@@H](N5CCCCC5)C3)C(=O)C43CCOCC3)cc3ncn(C(C)C)c23)cc1C(=O)NC1(C(F)F)CC1` [Example 32], for which the IC50 was determined as 0.08 nM.

As for `CCn1cnc2cc(-c3ccc4c(c3)N([C@H]3C[C@@H](N5CCCCC5)C3)C(=O)C43CCN(C(C)=O)CC3)nc(Nc3cc(C(=O)NC(C)C)c(C)cc3F)c21` [Example 54], the IC50 is 0.4 nM.

As to `Cc1ccc(Nc2nc(-c3ccc4c(c3)N([C@H]3C[C@@H](N5CCCCC5)C3)C(=O)C4(C)C)cc3ncn(C(C)C)c23)cc1C(=O)NC1CC1` [Example 26], the IC50 is 0.1 nM.

With `CNC(=O)c1cc(Oc2nc(-c3ccc4c(c3)N([C@H]3C[C@@H](N5CCC(C)(C)C5)C3)C(=O)C43CCN(C(C)=O)CC3)cc3ncn(C(C)C)c23)ccc1C` [Example 181], the concentration for half-maximal inhibition (IC50) was 0.2 nM.

In the case of `Cc1ccc(Nc2nc(-c3ccc4c(c3)N([C@H]3C[C@@H](N5CCCCC5)C3)C(=O)C4(C)C)cc3ncn(C(C)C)c23)cc1C(=O)NC(C)C` [Example 136, 5-((6-(3,3-dimethyl-2-oxo-1-((1s,3s)-3-(piperidin-1-yl)cyclobutyl)indolin-6-yl)-3-isopropyl-3H-imidazo[4,5-c]pyridin-4-yl)amino)-N-isopropyl-2-methylbenzamide], the IC50 came out at 0.1 nM.

As to `COCCNC(=O)c1cc(Nc2nc(-c3ccc4c(c3)N([C@H]3C[C@@H](N5CCCCC5)C3)C(=O)C4(C)C)cc3ncn(C(C)C)c23)c(F)cc1C` [Example 116], the IC50 was determined as 0.2 nM.

For `CCNC(=O)c1cc(Nc2nc(-c3ccc4c(c3)N([C@H]3C[C@@H](N5CCCCC5)C3)C(=O)C4(C)C)cc3ncn(C(C)C)c23)ccc1C` [Example 138], the IC50 is 0.1 nM.

Consider `Cc1c(F)c(Nc2nc(-c3cnc4c(c3)N([C@H]3C[C@@](C)(N5CCCCC5)C3)C(=O)C4(C)C)cc3ncn(C(C)C)c23)cc(C(=O)NC2(C(F)F)CC2)c1Cl` [Example 264, 2-chloro-N-(1-(difluoromethyl)cyclopropyl)-5-((6-(3,3-dimethyl-1-((1s,3s)-3-methyl-3-(piperidin-1-yl)cyclobutyl)-2-oxo-2,3-dihydro-1H-pyrrolo[3,2-b]pyridin-6-yl)-3-isopropyl-3H-imidazo[4,5-c]pyridin-4-yl)amino)-4-fluoro-3-methylbenzamide], for which the IC50 was 0.2 nM.

Take `Cc1c(C(=O)NC2(C(F)F)CC2)cc(Nc2nc(-c3ccc4c(c3)N([C@H]3C[C@@](C)(N5CCCCC5)C3)CC4(C)C)cc3ncn(C(C)C)c23)c(F)c1F` [Example 237, N-(1-(Difluoromethyl)cyclopropyl)-5-((6-(3,3-dimethyl-1-((1s,3s)-3-methyl-3-(piperidin-1-yl)cyclobutyl)indolin-6-yl)-3-isopropyl-3H-imidazo[4,5-c]pyridin-4-yl)amino)-3,4-difluoro-2-methylbenzamide]: the 50% inhibitory concentration (IC50) is 0.3 nM.

Regarding `CNC(=O)c1cc(Nc2nc(-c3ccc4c(c3)N([C@H]3C[C@@H](N5CCCCC5)C3)C(=O)C43CCN(S(C)(=O)=O)CC3)cc3ncn(C4CC4)c23)ccc1C` [Example 168], the IC50 was 0.1 nM.

Turning to `Cc1c(C(=O)NC2(C(F)F)CC2)cc(Nc2nc(-c3cnc4c(c3)N(C3CC(C)(N5CCC6C[C@H]5CO6)C3)C(=O)C4(C)C)cc3ncn(C(C)C)c23)c(F)c1F` (stereo partly shown) [Example 191, 5-((6-(1-((1s,3s)-3-(6-oxa-2-azabicyclo[3.2.1]octan-2-yl)-3-methylcyclobutyl)-3,3-dimethyl-2-oxo-2,3-dihydro-1H-pyrrolo[3,2-b]pyridin-6-yl)-3-isopropyl-3H-imidazo[4,5-c]pyridin-4-yl)amino)-N-(1-(difluoromethyl)cyclopropyl)-3,4-difluoro-2-methylbenzamide], the IC50 worked out at 0.09 nM.

For the compound `Cc1ccc(Nc2nc(-c3ccc4c(c3)N([C@H]3C[C@@H](N5CCC[C@H](O)C5)C3)C(=O)C4(C)C)cc3ncn(C4CC4)c23)cc1C(N)=O` [Example 36], the 50% inhibitory concentration (IC50) turned out to be 0.1 nM.

For the compound `CCNC(=O)c1cc(Nc2nc(-c3cnc4c(c3)N([C@H]3C[C@@](C)(N5CCCCCC5)C3)C(=O)C4(C)C)cc3ncn(C(C)C)c23)c(F)c(F)c1Cl` [Example 247, 5-((6-(1-((1s,3s)-3-(azepan-1-yl)-3-methylcyclobutyl)-3,3-dimethyl-2-oxo-2,3-dihydro-1H-pyrrolo[3,2-b]pyridin-6-yl)-3-isopropyl-3H-imidazo[4,5-c]pyridin-4-yl)amino)-2-chloro-N-ethyl-3,4-difluorobenzamide], the IC50 is 0.05 nM.

For the compound `CNC(=O)c1cc(Nc2nc(-c3ccc4c(c3)N([C@H]3C[C@@H](N5CCCCC5)C3)C(=O)C4(C)C)cc3ncn(C(C)C)c23)c(F)cc1Cl` [Example 118], the IC50 turned out to be 0.09 nM.

Turning to `CC(C)n1cnc2cc(-c3cnc4c(c3)N([C@H]3C[C@@](C)(N5CCC6CC6C5)C3)C(=O)C4(C)C)nc(Nc3cc(C(=O)NCC(F)F)c(Cl)c(F)c3F)c21` (stereo partly shown) [Example 256, 5-((6-(1-((1s,3s)-3-(3-azabicyclo[4.1.0]heptan-3-yl)-3-methylcyclobutyl)-3,3-dimethyl-2-oxo-2,3-dihydro-1H-pyrrolo[3,2-b]pyridin-6-yl)-3-isopropyl-3H-imidazo[4,5-c]pyridin-4-yl)amino)-2-chloro-N-(2,2-difluoroethyl)-3,4-difluorobenzamide], the IC50 amounted to 0.05 nM.

With `Cc1ccc(Nc2nc(-c3ccc4c(c3)N([C@H]3C[C@@H](N5CCCCC5)C3)C(=O)C4(C)C)cc3ncn(C(C)C)c23)cc1C(=O)N[C@@H](C)C(F)F` [Example 21A, N-(1,1-difluoropropan-2-yl)-5-((6-(3,3-dimethyl-2-oxo-1-((1s,3s)-3-(piperidin-1-yl)cyclobutyl)indolin-6-yl)-3-isopropyl-3H-imidazo[4,5-c]pyridin-4-yl)amino)-2-methylbenzamide], the IC50 is 0.07 nM.

For the compound `CNC(=O)c1cc(Nc2nc(-c3ccc4c(c3)N([C@H]3C[C@@H](N5CCCCC5)C3)CC4(C)C)cc3ncn(C(C)C)c23)ccc1C` [Example 57], the IC50 came out at 0.2 nM.

For `Cc1c(C(=O)NCC(F)F)cc(Nc2nc(-c3cnc4c(c3)N([C@H]3C[C@@](C)(N5CCCCC5)C3)C(=O)C4(C)C)cc3ncn(C(C)C)c23)c(F)c1F` [Example 217, N-(2,2-Difluoroethyl)-5-((6-(3,3-dimethyl-1-((1s,3s)-3-methyl-3-(piperidin-1-yl)cyclobutyl)-2-oxo-2,3-dihydro-1H-pyrrolo[3,2-b]pyridin-6-yl)-3-isopropyl-3H-imidazo[4,5-c]pyridin-4-yl)amino)-3,4-difluoro-2-methylbenzamide], the IC50 amounted to 0.06 nM.

As to `Cc1c(C(=O)NC2(C(F)F)CC2)cc(Nc2nc(-c3cnc4c(c3)N([C@H]3C[C@@](C)(N5CCCCC5)C3)C(=O)C4(C)C)cc3ncn(C(C)C)c23)c(F)c1F` [Example 185, N-(1-(difluoromethyl)cyclopropyl)-5-((6-(3,3-dimethyl-1-((1s,3s)-3-methyl-3-(piperidin-1-yl)cyclobutyl)-2-oxo-2,3-dihydro-1H-pyrrolo[3,2-b]pyridin-6-yl)-3-isopropyl-3H-imidazo[4,5-c]pyridin-4-yl)amino)-3,4-difluoro-2-methylbenzamide], the IC50 came to 0.1 nM.

In the case of `CNC(=O)c1cc(Nc2nc(-c3ccc4c(c3)N([C@H]3C[C@@H](N5CCCCC5)C3)C(=O)C4(C)C)cc3ncn(C(C)C)c23)c(F)cc1F` [Example 182], the IC50 was 0.2 nM.

For `Cc1ccc(Nc2nc(-c3ccc4c(c3)N([C@H]3C[C@@H](N5CCCCC5)C3)C(=O)C4(C)C)cc3ncn(C(C)C)c23)cc1C(=O)NC(CF)CF` [Example 31], the IC50 is 0.08 nM.

In the case of `CC(C)n1cnc2cc(-c3cnc4c(c3)N([C@H]3C[C@@](C)(N5CCCCCC5)C3)C(=O)C4(C)C)nc(Nc3cc(C(=O)NCC(F)F)c(Cl)c(F)c3F)c21` [Example 248, 5-((6-(1-((1s,3s)-3-(azepan-1-yl)-3-methylcyclobutyl)-3,3-dimethyl-2-oxo-2,3-dihydro-1H-pyrrolo[3,2-b]pyridin-6-yl)-3-isopropyl-3H-imidazo[4,5-c]pyridin-4-yl)amino)-2-chloro-N-(2,2-difluoroethyl)-3,4-difluorobenzamide], the concentration for half-maximal inhibition (IC50) is 0.05 nM.

The values are drawn from US11203591B2, “Substituted 6-azabenzimidazole compounds” (Gilead Sciences, Inc., priority 2018, dated 2021).
